According to ChEMBL document CHEMBL2169878 (J Med Chem, 2012):
pIC50: −log10 of the molar value.

Experiments:
[1] = test system: Plasmodium falciparum; experiment: Antiplasmodial activity against chloroquine-sensitive Plasmodium falciparum D10 infected in human RBC after 72 hrs by parasite lactate dehydrogenase assay; type: functional, organism-based; conditions: D10, 72 h
[2] = test system: Plasmodium falciparum; experiment: Antiplasmodial activity against chloroquine-resistant Plasmodium falciparum W2 infected in human RBC after 72 hrs by parasite lactate dehydrogenase assay; type: functional, organism-based; conditions: W2, 72 h
[3] = test system: Plasmodium falciparum; experiment: Antiplasmodial activity against chloroquine-sensitive Plasmodium falciparum NF54 infected in human erythrocytes assessed as inhibition of [3H]hypoxanthine incorporation incubated for 48 hrs prior to [3H]hypoxanthine addition measured after 48 hrs by liquid scintillation counting; type: functional, organism-based
[4] = test system: Plasmodium falciparum; experiment: Antiplasmodial activity against chloroquine-resistant Plasmodium falciparum K1 infected in human erythrocytes assessed as inhibition of [3H]hypoxanthine incorporation incubated for 48 hrs prior to [3H]hypoxanthine addition measured after 48 hrs by liquid scintillation counting; type: functional, organism-based
[5] = biological target: Chloroquine resistance transporter (Plasmodium falciparum, UniProt Q9N623); experiment: Inhibition of chloroquine-resistant Plasmodium falciparum Dd2 CRT expressed in Xenopus laevis oocyte assessed as inhibition of [3H]chloroquine uptake measured from 1 to 2 hrs
[6] = biological target: T1, Chloroquine resistance transporter (Plasmodium falciparum) (UniProt Q9N623); experiment: Inhibition of chloroquine-resistant Plasmodium falciparum Dd2 CRT expressed in Xenopus laevis oocyte assessed as inhibition of [3H]chloroquine uptake at 100 uM measured from 1 to 2 hrs
T1 sequence (whole entry): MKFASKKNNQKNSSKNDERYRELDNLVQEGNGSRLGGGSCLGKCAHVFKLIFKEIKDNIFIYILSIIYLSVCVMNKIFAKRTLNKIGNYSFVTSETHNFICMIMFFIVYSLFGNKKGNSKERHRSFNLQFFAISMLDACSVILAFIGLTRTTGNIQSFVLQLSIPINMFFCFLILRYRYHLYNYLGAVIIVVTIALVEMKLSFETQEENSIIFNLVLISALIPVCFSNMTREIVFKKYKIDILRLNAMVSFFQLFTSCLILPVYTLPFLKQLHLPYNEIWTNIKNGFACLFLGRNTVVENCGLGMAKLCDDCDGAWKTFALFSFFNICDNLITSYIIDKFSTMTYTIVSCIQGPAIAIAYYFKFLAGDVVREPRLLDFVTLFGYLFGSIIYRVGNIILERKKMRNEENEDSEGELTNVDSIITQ

[7] = test system: Plasmodium falciparum; experiment: Resistance ratio of IC50 for chloroquine-resistant Plasmodium falciparum W2 to IC50 for chloroquine-sensitive Plasmodium falciparum D10; type: functional
[8] = test system: Plasmodium falciparum; experiment: Resistance ratio of IC50 for chloroquine-resistant Plasmodium falciparum K1 to IC50 for chloroquine-sensitive Plasmodium falciparum NF54; type: functional

Row | SMILES | pIC50 [1] | pIC50 [2] | pIC50 [3] | pIC50 [4] | pIC50 [5] | inhibition [6] [%] | Ratio IC50 [7] | Ratio IC50 [8]
1 | COc1ccc2nccc(NC(c3cccc(Cl)c3)c3ccc(CN4CCCC4)c(F)c3)c2c1 (racemic) | 7.39 | 7.00 |  |  |  |  |  | 
2 | COc1ccc2nccc(NC(c3ccc(Cl)cc3)c3ccc(CN4CCCC4)c(Cl)c3)c2c1 (racemic) | 7.62 | 7.12 |  |  |  |  |  | 
3 | Clc1cccc(C(Nc2ccnc3cc(Cl)ccc23)c2ccc(CN3CCCC3)c(Cl)c2)c1 (racemic) | 7.24 | 7.30 | 7.89 | 7.72 |  |  |  | 
4 | CC(C)(C)NC(=O)[C@@H]1C[C@@H]2CCCC[C@@H]2CN1C[C@@H](O)[C@H](Cc1ccccc1)NC(=O)[C@H](CC(N)=O)NC(=O)c1ccc2ccccc2n1 |  |  |  |  | 4.89 |  |  | 
5 | FC(F)(F)c1ccc2c(NC(c3cccc(Cl)c3)c3ccc(CN4CCCC4)c(Cl)c3)ccnc2c1 (racemic) | 7.13 | 6.95 | 7.47 | 7.34 |  |  |  | 
6 | Clc1ccc(C(c2ccc(Cl)cc2)(c2ccc(CN3CCCC3)cc2)N2CCN(c3ccnc4cc(Cl)ccc34)CC2)cc1 | 6.56 | 6.24 | 7.04 | 7.04 |  | 42 |  | 
7 | COc1ccc2nccc(NC(c3ccc(Cl)cc3)c3ccc(CN4CCCC4)c(F)c3)c2c1 (racemic) | 7.24 | 7.16 | 7.60 | 7.48 |  |  |  | 
8 | COc1cc(C(Nc2ccnc3cc(Cl)ccc23)c2ccc(Cl)cc2)ccc1CN1CCCC1 (racemic) | 7.51 | 7.32 |  |  |  |  |  | 
9 | COc1ccc2nccc(NC(c3ccc(Cl)cc3)c3ccc(CN4CCNCC4)cc3)c2c1 (racemic) | 7.17 | 6.79 | 7.68 | 7.24 |  |  | 2.4 | 2.8
10 | Clc1ccc(C(Nc2ccnc3cc(Cl)ccc23)c2ccc(CN3CCN(Cc4ccc(C(Nc5ccnc6cc(Cl)ccc56)c5ccc(Cl)cc5)cc4)CC3)cc2)cc1 (racemic) | 6.72 | 7.01 | 7.05 | 7.25 |  |  | 0.5 | 0.6
11 | Fc1cc(C(Nc2ccnc3cc(Cl)ccc23)c2cccc(Cl)c2)ccc1CN1CCCC1 (racemic) | 8.05 | 7.60 |  |  |  | 70 |  | 
12 | Clc1ccc(C(Nc2ccnc3cc(Cl)ccc23)c2ccc(CN3CCCC3)cc2)cc1 (racemic) |  |  |  |  |  | 70 | 1.6 | 1.1
